According to patent US6849594B1, “Purification and use of human recombinant cartilage oligomeric matrix protein” (priority 1999, dated 2005):
Where two headings read alike, the source gives them in different places.

Tests used:
[1] = target: T1, hCOMP (Homo sapiens, UniProt P49747); assay: Affinity co-electrophoresis (ACE) binding of hCOMP to glycosaminoglycans
T1 construct: transfected with full length human COMP cDNA, they were able to process and secrete hCOMP; made in house
Excerpt: Affinity co-electrophoresis (ACE) was used to quantify the binding of hCOMP to heparin and other GAGs, including chondroitin sulfates from cartilage. Values are given in nM, and in cases where a standard deviation is reported, represent the mean of two determinations.
Affinity co-electrophoresis (ACE) (San Antonio et al., 1993) was used to quantify the binding of hCOMP to heparin and other commercially available GAGs derived from tissue sources, including chondroitin sulfates from cartilage, and values of Kd were measured. […] This is in agreement with our observation that hCOMP binds to heparin-Sepharose. […] To better ascertain potential roles of GAGs and proteoglycans in COMP function, heparan sulfate, keratan sulfate, and three chondroitin sulfates (chondroitin-6-sulfate, C6S; chondroitin-4-sulfate; C4S; and dermatan sulfate, DS) were tested for binding to hCOMP in the presence of 2 mM calcium using ACE (Table 1).
To further determine whether the conformation of the calcium-binding type 3 repeats was critical to GAG binding, hCOMP was tested for binding to heparin and C6S in the presence of 5 mM EDTA. […] While heparin binding was reduced only 3- to 5-fold by EDTA treatment, C6S binding appeared to be abolished by this treatment.

[2] = Direct calcium binding by equilibrium dialysis using 45CaCl2; settings: 0.3 mM free calcium concentration; mean±SD
Experimental: Direct calcium binding to COMP was measured by equilibrium dialysis using ^45CaCl2. Briefly, TSP1 and COMP were dialyzed in Slide-A-Lyzer dialysis units (Pierce, Rockford, Ill.) against dialysis buffer containing 0.3 mM CaCl2 and […] of ^45CaCl2. At the end of dialysis, 10 μl of protein sample and dialysis buffer were taken out for scintillation counting and protein determination. The number of calcium ions bound was calculated. At 0.3 mM free calcium concentration, each TSP1 subunit bound 10±2 calcium ions (mean±SD of four data points). This is in agreement with previous reports where 11-12 calcium ions were reported to bind to each TSP1 subunit (Lawler and Simons, 1983; Misenheimer and Mosher, 1995). Under the same conditions, each subunit of COMP bound 11±1 calcium ions. This is the first time it is shown that COMP binds calcium ions, and the result is consistent with the presence of highly homologous type 3 calcium binding repeats in COMP and other TSP family members.
Direct calcium binding to COMP was measured by equilibrium dialysis using ^45CaCl2. Briefly, TSP1 and COMP were dialyzed in Slide-A-Lyzer dialysis units (Pierce, Rockford, Ill.) against dialysis buffer containing 0.3 mM CaCl2 and 10 mCi/ml of ^45CaCl2. […] The number of calcium ions bound was calculated. […]

[3] = test system: TC1a cells (chondrocyte-derived cell line), monolayer culture; assay: Attachment of TC1a cells grown in monolayer to coated protein; type: cell-based, human
Experimental: To prepare cells grown in monolayer for attachment assays, cells grown in 10 cm tissue culture plates were washed twice with HEPES buffered saline (HBS), and treated with 1 ml of 0.1 mg/ml TPCK-treated trypsin (Worthington, Lakewood, N.J.) in HBS at 37° C. for 5 minutes. Trypsinization was stopped with 2 ml of 0.5 mg/ml soybean trypsin inhibitor (Sigma) in HBS with 1 mM CaCl2 (HBS/C). Cells were flushed off the plate as a single cell suspension, sedimented and washed twice with trypsin inhibitor solution. Subsequently, cells were resuspended in HBS/C containing 1% heat-inactivated bovine serum albumin (HI-BSA) at a final concentration of 2-2.5×10^5 cells/ml and used for attachment assays.
Immulon II 96-well plates (DYNEX, Chantilly, Va.) were coated with COMP at various concentrations in HBS/C or HBS containing 5 mM EDTA (HBS/E) at 4° C. overnight. The plates were then blocked with 1% HI-BSA in HBS/C or HBS/E, respectively, for 30 minutes at 37° C. After blocking, some wells coated with proteins in HBS/E were reduced with 20 mM dithiothreitol (DTT) in HBS/E for 30 minutes at 22° C. Wells were washed 4 times with HBS/C before addition of 100 μl of cells to each well and incubated for 2 hours at 37° C. At the end of the incubation, after examination under phase contrast microscopy, the plate was washed 3 times with HBS/C. The amount of cells attached to each well was quantified using CyQuant kit (Molecular Probes, Eugene, Oreg.).

[4] = test system: TC1a cells after 7- to 10-day culture in alginate beads; assay: Attachment of TC1a cells after alginate culture to coated protein; type: cell-based, human
Excerpt: An alginate culture system was used to re-differentiate the chondrocytes as described (Robbins and Goldring, 1998; Goldring, 1998; Hauselmann et al., 1994; Bonaventure et al., 1994). Briefly, cells in monolayer culture were trypsinized and washed with phosphate buffered saline. Cells were resuspended in 1.2% solution of Keltone, LVCR alginate (Monsanto, St. Louis, Mo.) in 0.15 M NaCl at a final concentration of 4×10^6 cells/ml. The cell suspension was then passed through a 22 Gauge needle into 102 mM CaCl2. Ten minutes after instant gelation, beads were washed with 0.15 M NaCl, and cultured in 1:1 DME/F-12 containing 10% FBS and 25 μg/ml ascorbate. To prepare cells in the alginate culture system for attachment assays, 7- to 10-day alginate bead cultures were solubilized with 55 mM citrate/0.15 M NaCl, pH 6.0 solution as described (Robbins and Goldring, 1998). Released cells were washed once with PBS and once with HBS/C before they were resuspended in HBS/C containing 1% BSA at a final concentration of 2-2.5×10^5 cells/ml.
Immulon II 96-well plates (DYNEX, Chantilly, Va.) were coated with COMP at various concentrations in HBS/C or HBS containing 5 mM EDTA (HBS/E) at 4° C. overnight. […] The amount of cells attached to each well was quantified using CyQuant kit (Molecular Probes, Eugene, Oreg.). […]

[5] = test system: Human costochondral cartilage cells; assay: Transwell chondrocyte migration assay; type: cell-based; settings: for chondrocyte migration: coated on underside of transwell membranes, 37° C., four hours
Experimental: (§1) Furthermore, as discussed in Example 5, COMP is a motility factor for chondrocyte migration. Human costochondral cartilage cells were used to test if COMP is active in promoting chondrocyte migration. COMP, as well as TSP1 and Vitrogen (Cohesion; Palo Alto, Calif.), at different concentrations, was coated on the underside of membranes of transwell migration assay wells. Chondrocyte cells, prepared as in the attachment assays, were loaded into the wells. Migration was allowed to go on at 37° C. for four hours. Nonmigratory cells remaining inside the wells were removed with cotton swabs. Cells which migrated to the underside of the membranes were quantified using a CyQuant kit.
as §1, with “Human” for “Furthermore, as discussed in Example 5, COMP is a motility factor for chondrocyte migration. Human”, “concentrations, were” for “concentrations, was”, “assay wells (Costar, Cambridge, Mass.).” for “assay wells.”, “Cells that” for “Cells which”, “CyQuant kit (Molecular Probes).” for “CyQuant kit.”

[6] = previous reports (Lawler and Simons, 1983; Misenheimer and Mosher, 1995); cited from earlier work
[7] = 2 mM Ca2+, ACE, > means no binding observed at any protein concentration, read-out: COMP, Kd in 2 mM Ca^2+
[8] = 5 mM EDTA, ACE, > means no binding observed at any protein concentration, read-out: COMP, Kd in 5 mM EDTA

T1 sequence (P49747 21-757): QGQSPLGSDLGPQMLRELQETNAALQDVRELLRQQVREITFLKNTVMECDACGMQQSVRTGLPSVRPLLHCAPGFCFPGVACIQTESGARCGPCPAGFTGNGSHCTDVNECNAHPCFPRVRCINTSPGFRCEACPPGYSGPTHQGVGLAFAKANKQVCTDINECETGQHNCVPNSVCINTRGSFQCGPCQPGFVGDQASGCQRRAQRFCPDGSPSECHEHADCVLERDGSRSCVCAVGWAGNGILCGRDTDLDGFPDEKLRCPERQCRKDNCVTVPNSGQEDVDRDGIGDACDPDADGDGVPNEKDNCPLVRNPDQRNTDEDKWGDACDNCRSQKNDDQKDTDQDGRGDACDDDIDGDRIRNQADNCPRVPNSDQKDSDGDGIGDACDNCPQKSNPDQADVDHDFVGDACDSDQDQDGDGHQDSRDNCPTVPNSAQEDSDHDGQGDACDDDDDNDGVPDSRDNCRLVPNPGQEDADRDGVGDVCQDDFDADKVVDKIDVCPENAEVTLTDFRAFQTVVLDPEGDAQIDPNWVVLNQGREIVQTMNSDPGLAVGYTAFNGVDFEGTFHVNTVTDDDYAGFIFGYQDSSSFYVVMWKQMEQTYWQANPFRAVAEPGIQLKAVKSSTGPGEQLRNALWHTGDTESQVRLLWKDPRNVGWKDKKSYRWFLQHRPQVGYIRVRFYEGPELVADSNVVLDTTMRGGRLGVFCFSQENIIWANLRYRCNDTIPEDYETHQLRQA

Question: For Heparin, which Kd [1, 7] is on record?
Answer: 89 nM

Question: What about the Kd [1, 8] of the same substance?
Answer: 450 nM

Question: Which “calcium ions bound per subunit” value [2] does the source give for “cartilage oligomeric matrix protein [hCOMP]” here?
Answer: 11±1 calcium ions

Question: What about the “effect on attachment of treating with EDTA before coating” value ([3]; EDTA before coating) of the same substance?
Answer: no obvious effect

Question: And the “protein coating concentration at which cells also spread” value ([3]; calcium replete conformation)?
Answer: ≥ 5 µg/mL

Question: And the “coating concentration at which cells attached and spread” value ([3]; dithiothreitol-treated)?
Answer: 1 µg/mL

Question: What about the cell attachment ([3]; protein in calcium replete conformation, coated on wells) of the same substance?
Answer: supported cell attachment in a dose-dependent manner

Question: And the “effect of reduction after coating on adhesive activity” value ([3]; reduced with DTT after coating, especially at low coating concentration)?
Answer: increased its adhesive activity

Question: And the cell attachment ([4]; calcium replete form, re-differentiated TC1a cells)?
Answer: able to support attachment

Question: What about the “decrease of level of attachment by chelation of calcium before coating” value ([4]; chelation of calcium before coating) of the same substance?
Answer: approximately 50%

Question: And the “chemoattractant potency compared with TSP1” value [5]?
Answer: more potent chemoattractant than TSP1

Question: What about the chondrocyte migration [5] of the same substance?
Answer: good chemoattractant

Question: And the “chemoattractant potency compared with TSP1” value ([5]; same concentration of 10 μg/ml)?
Answer: more potent chemoattractant than TSP1

Question: For chondroitin-4-sulfate [C4S], which Kd [1, 7] is on record?
Answer: 583 nM

Question: For chondroitin-6-sulfate [C6S], which Kd [1, 7] is on record?
Answer: 403 nM

Question: What about the “binding to hCOMP after EDTA treatment (in words)” value ([1]; 5 mM EDTA) of the same substance?
Answer: abolished

Question: And the Kd [1, 8]?
Answer: > 11000 nM

Question: Which Kd [1, 7] does the source give for dermatan sulfate [DS] here?
Answer: 328 nM

Question: For heparan sulfate [HS], which Kd ([1]; in the presence of calcium, ACE, read-out: binding to hCOMP (Kd)) is on record?
Answer: 1200 nM

Question: For human thrombospondin 1 [TSP1], which “calcium ions bound per subunit” value [2] is on record?
Answer: 10±2 calcium ions

Question: What about the chondrocyte migration [5] of the same substance?
Answer: promotes chondrocyte migration

Question: And the chondrocyte migration ([5]; listed as TSP 1)?
Answer: promoted chondrocyte migration

Question: What about the “calcium ions bound per subunit, previous reports” value [6] of the same substance?
Answer: 11-12 calcium ions

Question: Which results are given for keratan sulfate [KS]?
Answer: Kd [1, 7]: > 11000 nM; binding to hCOMP (in words) ([1]; in the presence of calcium, ACE): did not bind
